Experiments:
[1] = Oral bioavailability in Sprague-Dawley rat at 1 mg/kg by LC/MS/MS analysis; type: ADME, organism-based; details: in vivo
[2] = Half life in mouse at 0.5 mg/kg, iv; type: ADME, organism-based; details: in vivo
[3] = AUC (0 to 24 hrs) in Sprague-Dawley rat at 250 mg/kg/day administered as suspension for 2 weeks; type: ADME, organism-based; set-up: dose 250 mg/kg/day, time < 24 hr; details: in vivo
[4] = Clearance in Cynomolgus monkey at 0.5 mg/kg, iv by LC/MS/MS analysis; type: ADME, organism-based, Macaca fascicularis; details: in vivo
[5] = Oral bioavailability in dog at 2.5 mg/kg; type: ADME, organism-based, Canis lupus familiaris; details: in vivo
[6] = Cmax in mouse at 2.5 mg/kg, po; type: ADME, organism-based; set-up: dose 2.5 mg/kg, route oral; details: in vivo
[7] = Clearance in Sprague-Dawley rat at 0.5 mg/kg, iv by LC/MS/MS analysis; type: ADME, organism-based; details: in vivo
[8] = Toxicity in po dosed Beagle dog assessed as induction of adverse effect administered for 2 weeks; type: organism-based, Canis lupus familiaris; details: in vivo
[9] = Half life in Sprague-Dawley rat at 0.5 mg/kg, iv by LC/MS/MS analysis; type: ADME, organism-based; details: in vivo
[10] = Metabolic stability in rat hepatocytes at 2 uM incubated for 2 hr; type: ADME, cell-based, Hepatocyte; details: read-out: Stability
[11] = Metabolic stability in cynomolgus monkey hepatocytes at 2 uM incubated for 2 hr; type: ADME, cell-based, Macaca fascicularis, Hepatocyte; details: read-out: Stability
Mus musculus = assay: In vivo inhibition of BACE1 in po dosed Crl:CD1(ICR) mouse assessed as reduction in amyloidbeta level in brain after 2 to 6 hrs by ELISA; type: functional, organism-based
[12] = Tmax in dog at 2.5 mg/kg, po; type: ADME, organism-based, Canis lupus familiaris; details: in vivo
[13] = Half life in dog at 0.5 mg/kg, iv; type: ADME, organism-based, Canis lupus familiaris; details: in vivo
[14] = AUC in Beagle dog at 6 mg/kg/day, po administered for 2 weeks; type: ADME, organism-based, Canis lupus familiaris; details: in vivo
[15] = Toxicity in po dosed Sprague-Dawley rat administered as suspension for 2 weeks; type: organism-based; details: in vivo
Beta-secretase 2 = molecular target: T1, Beta-secretase 2 (Homo sapiens, UniProt Q9Y5Z0); assay: Inhibition of BACE2 (unknown origin) by HTRF assay
T1 sequence (Q9Y5Z0 whole entry): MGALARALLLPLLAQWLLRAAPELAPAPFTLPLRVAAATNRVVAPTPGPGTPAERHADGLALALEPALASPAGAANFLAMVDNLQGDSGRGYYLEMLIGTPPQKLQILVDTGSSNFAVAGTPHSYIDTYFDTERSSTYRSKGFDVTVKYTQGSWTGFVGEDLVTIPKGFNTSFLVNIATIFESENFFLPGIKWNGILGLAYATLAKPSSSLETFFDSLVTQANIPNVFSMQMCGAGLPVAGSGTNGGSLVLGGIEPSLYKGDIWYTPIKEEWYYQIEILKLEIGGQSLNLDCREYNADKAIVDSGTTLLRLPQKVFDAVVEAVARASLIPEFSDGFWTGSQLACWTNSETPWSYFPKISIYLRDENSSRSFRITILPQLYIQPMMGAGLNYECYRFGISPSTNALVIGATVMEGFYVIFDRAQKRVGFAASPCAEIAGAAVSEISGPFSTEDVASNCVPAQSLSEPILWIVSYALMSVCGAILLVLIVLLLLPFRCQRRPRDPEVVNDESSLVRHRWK

Canis familiaris [16] = assay: In vivo inhibition of BACE1 in Beagle dog assessed as reduction in amyloidbeta42 level in CSF at 1.25 mg/kg, po administered as single dose measured after 4 to 49 hrs relative to control; type: functional; details: Canis lupus familiaris
[17] = Tmax in mouse at 2.5 mg/kg, po; type: ADME, organism-based; details: in vivo
[18] = Cmax in dog at 2.5 mg/kg, po; type: ADME, organism-based, Canis lupus familiaris; set-up: dose 2.5 mg/kg, route oral; details: in vivo
[19] = Clearance in dog at 0.5 mg/kg, iv; type: ADME, organism-based, Canis lupus familiaris; details: in vivo
[20] = Fraction unbound in human plasma after 24 hrs by equilibrium dialysis based LC-MS/MS analysis; type: ADME, cell-free
[21] = Fraction unbound in monkey plasma after 24 hrs by equilibrium dialysis based LC-MS/MS analysis; type: ADME, cell-free, Macaca mulatta; details: rhesus monkey
[22] = Fraction unbound in rat plasma after 24 hrs by equilibrium dialysis based LC-MS/MS analysis; type: ADME, cell-free
[23] = Toxicity in anesthetized dog assessed as induction of adverse effect at 0.08 to 2.5 mg/kg, iv administered for 5 mins measured after 5 to 30 mins; type: organism-based, Canis lupus familiaris; details: in vivo
[24] = Fraction unbound in mouse brain at 5 uM incubated for 5 hrs by HPLC-MS/MS analysis; type: ADME, tissue-based
Canis familiaris [25] = species: Canis familiaris; assay: animal or person; type: functional, organism-based; details: Canis lupus familiaris, Beagle
[26] = Oral bioavailability in Sprague-Dawley rat at 2.5 mg/kg by LC/MS/MS analysis; type: ADME, organism-based; details: in vivo
[27] = AUC in Sprague-Dawley rat at 2.5 mg/kg, po by LC/MS/MS analysis; type: ADME, organism-based; details: in vivo
[28] = Metabolic stability in mouse hepatocytes at 2 uM incubated for 2 hr; type: ADME, cell-based, Hepatocyte; details: read-out: Stability
Canis familiaris [29] = assay: In vivo inhibition of BACE1 in po dosed Beagle dog assessed as plasma level causing 80% reduction in amyloidbeta42 level in CSF administered as single dose measured after 4 to 49 hrs; type: functional, Canis lupus familiaris
[30] = Tmax in Sprague-Dawley rat at 2.5 mg/kg, po by LC/MS/MS analysis; type: ADME, organism-based; details: in vivo

Work on `C[C@H]1SC(N)=N[C@](C)(c2cc(NC(=O)c3cnc(OCF)cn3)ccc2F)[C@H]1F` yielded a bioavailability [1] of 31%, a half-life [2] of 3.2 h and an AUC at 24 h [3] of 68000 ng·h/mL. For the same compound, the clearance [4] was 23 mL/min/kg, the bioavailability [5] was 95% and the Cmax [6] was 195 ng/mL. The clearance [7] was 24.8 to 27 mL/min/kg, the NOAEL at 336 h [8] was 6 mg/kg/day and the half-life [9] was 2.2 h. For the same compound, the remaining at 2 h, 2 µM [10] was 74%, the remaining at 2 h, 2 µM [11] was 55% and the inhibition (Mus musculus) was “Dose-dependent effect”. The Tmax [12] was 1.8 h, the half-life [13] was 13.7 h and the AUC at 336 h [14] was 41000 ng·h/mL. It also gave an NOAEL at 336 h [15] of 250 mg/kg/day, an IC50 (Beta-secretase 2) of 7.1 nM and an inhibition in vivo at 1.25 mg/kg (Canis familiaris [16]) of 80%. The Tmax [17] was 0.3 h, the Cmax [18] was 685 ng/mL and the clearance [19] was 2.6 mL/min/kg. The fraction unbound at 24 h [20] was 0.083, the fraction unbound at 24 h [21] was 0.12 and the fraction unbound at 24 h [22] was 0.12. It also gave an NOAEL [23] of over 6.9 µg/mL, a fNOAEL [23] of 1.3 µM and a fraction unbound at 5 h, 5 µM [24] of 0.034. The EC50 (Canis familiaris [25]) was 1.8 nM, the bioavailability [26] was 38% and the AUC [27] was 566 ng·h/mL. For the same compound, the remaining at 2 h, 2 µM [28] was 71%, the EC80 (Canis familiaris [29]) was 100 nM and the Tmax [30] was 0.7 h.
